# Measured values as given in PubChem BioAssay AID1645866 (Buhrlage Lab, Dana-Farber Cancer Institute and Novartis …, 2021).
# Calls of active or inactive are those of the source.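 Rule for the calls: active = in confirmatory dose-response testing, peak deubiquitinase inhibition of 30% or more; inactive = the rest.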
# Target: Ubiquitin carboxyl-terminal hydrolase 28 (Homo sapiens) (UniProt Q96RU2)
# Experiment: Concentration-response biochemical assay confirming initial hits as inhibitors of ubiquitin-specific protease 28 (AID 1645866)
# Settings: purified USP28, ubiquitin-rhodamine fluorescence, 30 min
# Chain of Ubiquitin carboxyl-terminal hydrolase 28 (Homo sapiens) (Q96RU2 whole entry, looked up): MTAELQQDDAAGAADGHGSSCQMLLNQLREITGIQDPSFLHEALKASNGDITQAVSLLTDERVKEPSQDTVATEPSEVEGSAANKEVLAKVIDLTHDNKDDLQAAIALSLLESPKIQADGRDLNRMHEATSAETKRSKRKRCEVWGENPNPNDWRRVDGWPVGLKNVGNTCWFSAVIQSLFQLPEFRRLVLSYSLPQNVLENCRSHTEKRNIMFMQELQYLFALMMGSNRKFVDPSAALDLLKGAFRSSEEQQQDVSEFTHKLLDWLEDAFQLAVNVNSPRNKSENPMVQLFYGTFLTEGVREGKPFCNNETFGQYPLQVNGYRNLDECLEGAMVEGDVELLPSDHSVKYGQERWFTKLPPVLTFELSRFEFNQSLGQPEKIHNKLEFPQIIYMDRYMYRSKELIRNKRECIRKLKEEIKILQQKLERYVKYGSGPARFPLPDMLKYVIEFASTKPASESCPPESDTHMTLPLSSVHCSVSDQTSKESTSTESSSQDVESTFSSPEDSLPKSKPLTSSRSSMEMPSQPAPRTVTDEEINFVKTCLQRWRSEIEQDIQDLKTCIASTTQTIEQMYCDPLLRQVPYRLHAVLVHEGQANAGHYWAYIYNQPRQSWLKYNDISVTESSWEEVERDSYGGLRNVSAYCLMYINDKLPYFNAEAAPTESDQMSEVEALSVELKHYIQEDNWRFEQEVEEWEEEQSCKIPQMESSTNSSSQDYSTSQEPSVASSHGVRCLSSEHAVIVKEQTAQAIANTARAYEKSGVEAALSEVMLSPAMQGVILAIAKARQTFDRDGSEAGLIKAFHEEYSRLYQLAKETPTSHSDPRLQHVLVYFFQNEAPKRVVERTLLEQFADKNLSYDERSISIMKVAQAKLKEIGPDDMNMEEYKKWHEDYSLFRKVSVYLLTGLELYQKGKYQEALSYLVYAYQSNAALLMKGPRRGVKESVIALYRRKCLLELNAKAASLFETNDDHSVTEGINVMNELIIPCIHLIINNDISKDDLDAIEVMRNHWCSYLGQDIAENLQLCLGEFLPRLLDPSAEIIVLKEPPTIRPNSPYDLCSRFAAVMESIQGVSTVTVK
row,Compound,IC50
1,CCC[C@H]1O[C@@H]2CC(=O)O[C@@H]2C2=C1C(=O)c1c(O)cccc1C2=O,14.3 µM
2,COCCNC(=O)c1cc(-c2cn(-c3ccccn3)c(C)n2)n2ccccc12,> 50 µM (inactive)
3,CC1CCN(c2nnc(-c3nc(C4CC4)no3)c3ccccc23)CC1,> 50 µM (inactive)
4,CCCC1Cc2c(sc3nc(SCC)nc(N)c23)CO1 (stereo unspecified),16.4 µM
5,COc1cccc(NC(=O)Nc2nccn(-c3ccc(F)cc3)c2=O)c1,18.3 µM
6,COc1cc(NC(=O)Cn2nc(-c3ccc(F)cc3)ccc2=O)ccc1-n1cnnn1,1.98 µM
7,O=C(CN1C(=O)c2ccccc2Sc2ccc(C(=O)N3CCCC3)cc21)Nc1ccccc1Cl,29.6 µM
8,CN(C)C1CCN(C(=O)c2cc(-c3ccn(-c4ccccc4)n3)n3ccccc23)CC1,> 50 µM (inactive)
9,COc1ccc(C(=O)Nc2nc(-c3ccc4c(c3)NC(=O)CO4)c(C)s2)cc1OC,1.72 µM
10,Cn1ccc2c(cc(C(=O)NCCC3=CCCCC3)n2C)c1=O,21.1 µM
11,O=C(Nc1ccc2c(c1)OCCO2)c1cc(CN2CCOCC2)on1,11.9 µM
12,COc1ccc(/C=C/c2ccnc3nc(-n4cccc4)nn23)cc1,> 50 µM (inactive)
13,COc1cc(OC)cc(-n2c(=O)c3sccc3n(CC(=O)Nc3ccc(C)cc3)c2=O)c1,6.98 µM
14,CCC(C)NC(=O)Cn1c(=O)n(-c2ccccc2)c(=O)c2ccc(C(=O)NCc3ccco3)cc21 (stereo unspecified),37.9 µM
15,CC1CCN(c2cc(-n3cnc(C(=O)N4CCCCC4)c3)ncn2)CC1,25.9 µM
16,COc1cc(OC)cc(-c2nc(-c3cn(-c4cccc(F)c4)nn3)no2)c1,0.483 µM
17,O=S1(=O)CCN(CC2CCCO2)c2c(Oc3ccccc3)nc(F)c(Cl)c21 (stereo unspecified),> 50 µM (inactive)
18,Nc1c(-c2ccc(Cl)cc2)cnc2nc(Sc3ncc(C(F)(F)F)cc3Cl)nn12,> 50 µM (inactive)
19,Oc1sc(C=Nc2cc(Cl)ccc2Cl)c2ccccc12,2.98 µM
20,O=C(Nc1cc(F)c2nc(N3CCCC3)ccc2c1)c1ccco1,> 50 µM (inactive)
21,CCCC(O)CCCCCCCc1cc(O)cc(O)c1C(=O)OC(CCC)CCCCCCCc1cc(O)cc(O)c1 (stereo unspecified),25.3 µM
22,O=C(NC(Cc1ccccc1)c1nc2ccccc2[nH]1)C1CC1 (stereo unspecified),> 50 µM (inactive)

row,Compound,IC50
1,FC(F)(F)c1cccc(CSc2ccc3nnc(-c4ccccn4)n3n2)c1,1.75 µM
2,CC1(C)Cc2nc3sc4c(=O)n(CC(=O)NCc5ccccc5)cnc4c3cc2CO1,32.9 µM
3,O=C(NCc1ccc2c(c1)OCO2)c1nn(C23CC4CC(CC(C4)C2)C3)cc1[N+](=O)[O-],> 50 µM (inactive)
4,CCc1nnc(NC(=O)c2nnn(-c3ccccc3Cl)c2C)s1,28.5 µM
5,COc1ccc(C(=O)Nc2n[nH]c(C)c2-c2cccc(C)c2)c(OC)c1,10.3 µM
6,O=C(CCCCn1c(=O)[nH]c2ccccc2c1=O)Nc1cccc(Cl)c1,16.7 µM
7,COc1ccc(C)cc1NC(=O)COc1ccc2c(c1)OCO2,49.6 µM
8,Cc1ccc(OCCn2c(=N)n(C(C)C)c3ccccc32)cc1,2.13 µM
9,Cc1cccc(NC(=O)CSc2nnc(-c3n[nH]c4c3CCC4)n2N)c1,26.6 µM
10,O=C(COc1ccc2c(c1)CCC2)Nc1ccc2c(c1)CCC2,37.7 µM
11,CC(=O)c1ccc(NC(=O)c2nc3ccccc3nc2N2CCOCC2)cc1,> 50 µM (inactive)
12,CCC(C)c1ccc(O[C@@H]2O[C@@H]3COC(c4ccccc4)O[C@H]3[C@H](O)[C@H]2NC(C)=O)cc1 (stereo partly specified),20.2 µM
13,O=C(CN1C(=O)C2CCCC2=Nc2ccccc21)Nc1ccc(F)cc1F (stereo unspecified),26.2 µM
14,Cc1ccc(C)c(NC(=O)CCc2nc(CSc3nc4ccccc4o3)no2)c1,13.4 µM
15,COc1cccc2c1NC(=O)C21CCN(C(=O)Nc2cccc(C)c2)CC1,14.6 µM
16,O=C(Cn1cncc(-c2nc(-c3ccccc3)cs2)c1=O)NC1CCCC1,36.5 µM
17,N#Cc1ccc(NC(=O)c2ccc(S(=O)(=O)N3CCCCC3)cc2)cc1,27.6 µM
18,CC(C)N1CC2CN(C(=O)c3ccccc3)CCN2Cc2ccccc21 (stereo unspecified),> 50 µM (inactive)
19,CCn1ccc2c(cc(C(=O)Nc3cc(F)ccc3F)n2C)c1=O,2.22 µM
20,Cc1ccc(NC(=O)Cc2nnc3c(-c4nc(C5CC5)no4)cccn23)cc1,3.53 µM
21,CNC(=O)CC1NC(=O)c2csc(n2)-c2ccc(-c3nc(C4=NC(C(=O)N5CCCC5C(N)=O)CO4)cs3)nc2-c2csc(n2)-c2csc(n2)C(C(O)c2ccccc2)NC(=O)CNC(=O)c2nc(sc2COC)C(C(C)C)NC(=O)c2nc1sc2C (stereo unspecified),11.4 µM
22,CCOc1ccccc1C(=O)Oc1ccc2c(C)cc(=O)oc2c1,23.2 µM

row,Compound,IC50
1,COc1ccc(CC(=O)NCc2ccc3[nH]c(C)cc3c2)cc1,> 50 µM (inactive)
2,Cc1ccc(S(=O)(=O)N2CCC3(CC2)NC(=O)c2ccccc2N3)c(C)c1,31.3 µM
3,Cc1ccc(C(=O)NCc2ccc(C(=O)Nc3cccc(C)c3)o2)cc1,28.1 µM
4,Cc1nn(-c2nc3ccccc3[nH]2)c2c1C(c1cccs1)CC(=O)N2 (stereo unspecified),> 50 µM (inactive)
5,COc1ccc(CCC(=O)Nc2ccc3c(c2)Sc2ncccc2C(=O)N3C)cc1,41 µM
6,COc1ccc(NC(=O)c2sc(N3CCOCC3)nc2-c2ccccc2)c(OC)c1,17 µM
7,COc1ccc(-n2ccn3c(CCC(=O)NCc4ccc(F)cc4)nnc3c2=O)cc1,25.3 µM
8,CN1C(=O)COc2ccc(NC(=O)c3cc(-c4ccccc4)on3)cc21,> 50 µM (inactive)
9,O=C(/C=C/c1ccccc1)N1CCN(C2=NS(=O)(=O)c3ccccc32)CC1,> 50 µM (inactive)
10,Cn1ccnc1CN1C[C@H]2CCN(c3ncccn3)C[C@H]2C1,> 50 µM (inactive)
11,O=C1CN(C(=O)COC(=O)CCCN2C(=O)c3cccc4cccc(c34)C2=O)c2ccccc2N1,48.5 µM
12,Cc1c(-c2nc(-c3ccccc3Cl)no2)nnn1-c1cccc(F)c1,14.2 µM
13,COc1cc(Cl)ccc1Nc1ncc(C(=O)Nc2cc(OC)c(OC)c(OC)c2)c2ccccc12,< 0.05 µM
14,CCOC(=O)c1nc(Nc2ccc(OC)c(Cl)c2)c2ccccc2n1,26.5 µM
15,CC1CCCN(CCCNC(=O)c2ccc(N3CCc4ccccc43)s2)C1 (stereo unspecified),18.5 µM
16,COc1ccc2c(c1)c(N1CCCC1=O)c(C(=O)NCc1cccc(OC)c1OC)n2C,> 50 µM (inactive)
17,Cc1cc(CSc2ncccc2C(=O)Nc2ccnn2Cc2cccnc2)no1,> 50 µM (inactive)
18,COc1cc(C)c2c(=O)c3c(oc2c1)C(=O)c1c(O)c(OC)cc(O)c1C3=O,1.56 µM
19,O=C(CN1CCCc2ccccc21)Nc1ccc(N2CCOCC2)cc1,> 50 µM (inactive)
20,COc1cc(/C=C/C(=O)OCC(=O)Nc2ccc([N+](=O)[O-])cc2OC)ccc1O,18.8 µM

# The next lines start with the values.
row,IC50,Compound
1,> 50 µM (inactive),O=C(COc1nsnc1N1CCOCC1)Nc1ccc(F)c(F)c1
2,23.5 µM,CCc1ccccc1NC(=O)COc1ccccc1-c1nnc(-c2ccccc2)o1
3,7.79 µM,Cc1cc(N2CCN(c3ncccn3)CC2)nc2ccc(NC(=O)/C=C/c3ccccc3Cl)cc12
4,< 0.05 µM,Cc1cccc(C(=O)Nc2ccc3c(c2)nc(CSc2nccc(C)n2)n3C)c1
5,4.44 µM,CCOc1ccc(-c2noc(-c3nn(-c4cccc(OC)c4)ccc3=O)n2)cc1
6,> 50 µM (inactive),Cn1cc2cccc(NC(=O)c3ccc(F)cc3)c2n1
7,36.3 µM,O=C(/C=C/c1c(F)cccc1Cl)N1CCc2ccccc2C1
8,4.04 µM,COc1cc(C(=O)Nc2ccc(-c3csc(C)n3)cc2)cc(OC)c1OC
9,1.95 µM,CCOc1ccc(NC(=O)Cn2c(=O)n(CCCCCC(=O)NCc3ccc(F)cc3)c(=O)c3sccc32)cc1
10,1.77 µM,CC(=O)c1cc2c(=O)c3c(C(=O)O)c(O)c(O)cc3oc2c(C(C)=O)c1-c1coc2cc(O)c(O)c(C(=O)O)c2c1=O
11,22.5 µM,Cc1nc(C(=O)N[C@@H](C)C(=O)NCc2ccc3c(c2)OCO3)cc2c1[nH]c1ccccc12
12,25.6 µM,Cc1c(-c2nnc(-c3ccccn3)o2)nnn1-c1cccc(Cl)c1
13,2.01 µM,Cc1nc2sc(C(=O)Nc3ccccc3Br)c(N)c2c(C)c1C
14,7.07 µM,O=C(NCc1ccc2c(c1)OCO2)c1cc2c(s1)-c1ccccc1OC2
15,0.225 µM,O=[N+]([O-])c1ccc(N2CCN(c3ncnc4c3[nH]c3ccc(F)cc34)CC2)cc1
16,24.4 µM,O=C(CNS(=O)(=O)c1ccc(F)cc1)N1CCCC(c2nnc3ccccn23)C1 (stereo unspecified)
17,> 50 µM (inactive),COc1cccc(CCNC(=O)CCn2c(=O)c(C)nc3cc(C)c(C)cc32)c1
18,> 50 µM (inactive),Cc1cccc(NC(=O)c2ccn(COc3ccc(F)cc3F)n2)c1C
19,30 µM,COc1ccc(-c2[nH]c3ccccc3c2SCCNC(=O)c2ccc(S(=O)(=O)N3CCOCC3)cc2)cc1

row,IC50,Compound
1,> 50 µM (inactive),O=C(NC1CC1)c1ccnn1-c1ccc2ccc(-c3ccncc3)cn12
2,22 µM,Fc1cc(F)c2[nH]cc(-c3nnnn3-c3ccc4ccccc4c3)c2c1
3,18.5 µM,CSc1ncc(C(=O)NC(C)c2ccccc2)c(-c2ccccc2)n1 (stereo unspecified)
4,15.2 µM,CC1CCc2sc(NC(=O)c3ccccc3Oc3ccccc3)c(C(N)=O)c2C1 (stereo unspecified)
5,0.456 µM,Cc1ccc(NC(=O)C2CCN(c3cncnc3N3CCCC3)CC2)cc1
6,12.6 µM,CCN1C(SCc2ccccc2F)=NS(=O)(=O)c2ccccc21
7,8.27 µM,O=C(Nc1ccc2c(c1)OCO2)c1cc(-c2cccnc2)n(-c2ccccc2)n1
8,8.61 µM,CCOc1ccc(NC(=O)Cn2c(=O)n(CC(=O)NCc3ccc(C)cc3)c(=O)c3sccc32)cc1
9,17.9 µM,Cn1c(-c2nnc(SCC(=O)Nc3ccccc3F)o2)cc2ccccc21
10,8.7 µM,COc1cccc(-n2nnc(C(=O)Nc3ccc(C)c(C)c3)c2C)c1
11,> 50 µM (inactive),CCn1cnc2c1c(=O)n(CC(=O)NCc1ccccc1Cl)c(=O)n2Cc1ccccc1
12,26 µM,COc1ccc(CC(=O)Nc2ccc3nc(N4CCOCC4)cc(C)c3c2)cc1
13,> 50 µM (inactive),O=C(COc1nc2ccccc2nc1N1CCOCC1)Nc1cccc(S(=O)(=O)N2CCCCC2)c1
14,> 50 µM (inactive),COc1ccc(N2CCN(Cc3nnnn3Cc3ccc4c(c3)OCO4)CC2)cc1
15,18.5 µM,CC1(C)OC2=C(C(=O)c3cc(O)cc(O)c3C2=O)c2cc(CO)c(O)cc21
16,26.1 µM,CC(OC(=O)c1ccc2c(c1)OCCO2)C(=O)NCC1CCCCC1 (stereo unspecified)
17,15.1 µM,CC1CCN(C(=O)c2cn(-c3cc(N4CCC(C)CC4)ncn3)cn2)CC1
18,6.27 µM,O=C(NC1CCN(Cc2ccccc2)CC1)c1[nH]nc2c1CCc1ccccc1-2
